The text below walks through data of article PMC7667639, “Optimized Opioid-Neurotensin Multitarget Peptides: From Design to Structure–Activity Relationship Studies” (Journal of Medicinal Chemistry, 2020).

For data set [1], the target named is T1, human NTS2 receptor (Homo sapiens, UniProt O95665).
T1 construct: host or cells: 1321N1 (human astrocytoma)
Particulars: cited from earlier work; for selectivity NTS2/NTS1: ratio of Ki values; for Ki: human receptor, 1321N1 membranes, read-out: affinity Ki NTS2.

Data set [2] addresses T2, human MOR (Homo sapiens, UniProt P35372).
T2 construct: host or cells: CHO (CHO-hMOR)
In kind it is biochemical. Particulars: in words.

The target of data set [3] is human neurotensin 2 receptor (human) (UniProt O95665). The data set can be described thus: radioligand binding; competition with [125I]-NT on membranes (15–20 μg) of CHO cells (hNTS1) or 1321N1 astrocytoma cells (hNTS2); binding buffer 10 mM Tris, 1 mM EDTA pH 7.5, peptides diluted with 50 mM Tris-HCl and 0.2% BSA; 60 min, ambient temperature, filtration; Ki by Cheng and Prusoff.

The target of data set [4] is human neurotensin 1 receptor (human) (UniProt P30989). The data set is described as above.
For data set [5], the target named is human μ-opioid receptor (human) (UniProt P35372).
For data set [6], the target named is human κ-opioid receptor (human) (UniProt P41145).
Data set [7] has as its target human δ-opioid receptor (human) (UniProt P41143).
The target of data set [8] is human neurotensin 1 receptor (human) (UniProt P30989).
The target of data set [9] is human μ-opioid receptor (human) (UniProt P35372). Put plainly: radioligand binding; competition on membranes (15–20 μg) of CHO cells stably expressing hMOR, hDOR or hKOR; radioligands [3H]DAMGO (hMOR), [3H]diprenorphine (hDOR), [3H]U69,593 (hKOR); 50 mM Tris-HCl pH 7.4, 60 min, 25 °C, filtration; Ki by Cheng and Prusoff.
The target of data set [10] is human κ-opioid receptor (human) (UniProt P41145). The description is as above.
Data set [11] concerns the target human δ-opioid receptor (human) (UniProt P41143). The data set is described as above.
Data set [12] deals with T3, human NTS1 (Homo sapiens, UniProt P30989). The arrangement: host or cells: CHO-K1. Particulars: CHO membranes, read-out: affinity Ki NTS1; cited from earlier work.
Data set [13] addresses T1, human NTS2 receptor. The data set can be described thus: Competitive radioligand binding ([125I]-NT), 1321N1-hNTS2 membranes. The note with it: ratio of Ki values NTS1 vs NTS2.
Data set [14] deals with T3, human NTS1. The data set can be described thus: cell-based. The arrangement: expressed in transfected cells; host or cells: HEK293 (transfected with PEI).
The subject of data set [15] is NTS2. The arrangement: method as in PMID 27359371. Particulars: in words; cited from earlier work.
In data set [16] the target is T4, human DOR (Homo sapiens, UniProt P41143).
T4 construct: host or cells: CHO (CHO-hDOR)
Put plainly: [35S]GTPγS binding assay, CHO-hDOR membranes. The note with it: in words. In kind it is biochemical. A general note: GTPγS is a poorly hydrolysed GTP analogue; its binding reports G protein activation.

For data set [17], the target named is T5, human KOR (Homo sapiens, UniProt P41145).
T5 construct: host or cells: CHO (CHO-hKOR)
Put plainly: [35S]GTPγS binding assay, CHO-hKOR membranes. Type of data set: biochemical. The note with it: in words.

For data set [18] the following is noted: cited from earlier work.

Read-outs that look alike come from different tables or passages of the source. Numbered stars: 1 amine (or outer) side, 2 acyl side, 3 side chain; on linkers, the order of the positions; unused ones are H or OH. Square brackets hold non-standard residues; d marks the D form. Peptide text beside a SMILES is read from it. (6-OH)Tic = 6-hydroxy-1,2,3,4-tetrahydroisoquinoline-3-carboxylic acid, O=C([C@@H]1Cc2cc(O[*:3])ccc2CN1[*:1])[*:2]; X1 = O=C1[C@@H](N[*:1])Cc2ccccc2CN1CCC(=O)[*:2]; X2 = O=C([C@@H]1Cc2cc(O)ccc2CN1[*:1])[*:2]; Dmt = Cc1cc(O)cc(C)c1C[C@H](N)C(=O)O; Tle = CC(C)(C)[C@H](N)C(=O)O; β3hK = NCCCC[C@H](N)CC(=O)O

Turning to “H-Arg-Arg-Pro-(6-OH)Tic-Tle-Leu-OH [compound 15]”, in data set [1], the “selectivity NTS2/NTS1” value was 50.

With `Cc1cc(O)cc(C)c1C[C@H](NC(=O)[C@@H]1CCCN1C(=O)[C@H](CCCNC(=N)N)NC(=O)[C@H](CCCNC(=N)N)NC(=O)CCN1Cc2ccccc2C[C@H](NC(=O)[C@@H](CCCNC(=N)N)NC(=O)[C@@H](N)Cc2c(C)cc(O)cc2C)C1=O)C(=O)N[C@H](C(=O)N[C@@H](CC(C)C)C(=O)O)C(C)(C)C` [compound 5, H-Dmt-D-Arg-Aba-β-Ala-Arg-Arg-Pro-Dmt-Tle-Leu-OH] (H-[Dmt][dR][X1]RRP[Dmt][Tle]L-OH), the “functional profile at the MOR (G protein activation)” value (shortened to “functional profile at the MOR”) in data set [2] is recorded as “very potent agonists”.

As a reminder, the Ki is the equilibrium dissociation constant of an inhibitor or competing ligand from its target. Regarding PK20 (peptide), in data set [3], the inhibition constant Ki was found to be 29.5 nM. Besides, the Ki in [4] worked out at 188 nM. In [5], this compound returned an MOR [^35S]GTPγS binding, EC50 of 13.3 nM; an MOR [^35S]GTPγS binding, Emax (% of DAMGO) of 91%; an MOR β-arrestin-2 recruitment, EC50 of 956 nM; an MOR β-arrestin-2 recruitment, Emax (% of DAMGO) of 69%. For the same compound, in data set [6], the KOR [^35S]GTPγS binding, EC50 was 47.1 nM and the KOR [^35S]GTPγS binding, Emax (% of U69,593) amounted to 65%. Further, in data set [7], the DOR [^35S]GTPγS binding, EC50 is 479 nM and the DOR [^35S]GTPγS binding, Emax (% of DPDPE) came to 78%. In [8], this compound displayed an NTS1 Gαq activation (BRET), EC50 of 19.1 nM and an NTS1 Gαq activation (BRET), Emax (% of NT(8-13)) of 101%. In data set [9], this compound came in with a Ki of 4.13 nM. In data set [10], the Ki came to 33.5 nM. The compound further displayed a Ki in data set [11] of 46.4 nM.

Turning to “H-Arg-Arg-Pro-Dmt-Tle-Leu-OH [compound 14]”, the Ki is 3 ± 2 nM in [1] and 13.4 ± 2 nM in [12]. For the same compound, the “selectivity NTS2/NTS1” value in data set [1] was 4.5.

The term EC50 denotes the concentration that produces a half-maximal response. The low end stands for a more potent agent, the high end for a less potent agent. Consider `Cc1cc(O)cc(C)c1C[C@H](N)C(=O)N[C@H](CCCNC(=N)N)C(=O)N[C@H]1Cc2ccccc2CN(CCC(=O)N[C@@H](CCCNC(=N)N)C(=O)N[C@@H](CCCNC(=N)N)C(=O)N2CCC[C@H]2C(=O)N2Cc3ccc(O)cc3C[C@H]2C(=O)N[C@H](C(=O)N[C@@H](CC(C)C)C(=O)O)C(C)(C)C)C1=O` [peptide 9, H-Dmt-D-Arg-Aba-β-Ala-Arg-Arg-Pro-(6-OH)Tic-Tle-Leu-OH] (H-[Dmt][dR][X1]RRP[X2][Tle]L-OH), for which the “selectivity NTS2/NTS1” value in [13] was over 2700. Moreover, in [2], the “functional profile at the MOR” value is “very potent agonists”. In [14], the EC50 is about 2000 nM and the “fold decrease in NTS1 activity (EC50) compared to NT(8-13)” value is reported as 13,000 fold. In addition, in data set [14] (vs 1), the “fold decrease in NTS1 activity (EC50) compared to 1” value was “ca. 1000 fold”.

As to `COc1cccc(OC)c1-c1cc(C(=O)NC2(C(=O)O)C3CC4CC(C3)CC2C4)nn1-c1ccnc2cc(Cl)ccc12` (stereo not shown) [SR48692], the “activity at NTS2 in the FLIPR assay” value in data set [15] was “full agonist activity”.

For `Cc1cc(O)cc(C)c1C[C@H](N)C(=O)N[C@H](CCCCN)C(=O)N[C@@H](Cc1ccccc1)C(=O)N[C@@H](Cc1ccccc1)C(=O)N[C@@H](CCCCN)C(=O)N[C@@H](CCCCN)C(=O)N1CCC[C@H]1C(=O)N[C@@H](Cc1ccccc1)C(=O)N[C@H](C(=O)N[C@@H](CC(C)C)C(=O)O)C(C)(C)C` [PK20] (H-[Dmt][dK]FFKKPF[Tle]L-OH), the “functional profile at the DOR” value in [16] is given as “weak partial agonist”. Further, the “functional profile at the MOR” value in data set [2] is on record as “potent full agonist”. For the same compound, in data set [17], the “functional profile at the KOR” value is “relatively potent KOR partial agonist”.

Consider “H-Arg-Arg-Pro-(6-OH)Tic-Tle-Leu-OH (H-RRP[(6-OH)Tic][Tle]L-OH; SMILES CC(C)C[C@H](NC(=O)[C@@H](NC(=O)[C@@H]1Cc2cc(O)ccc2CN1C(=O)[C@@H]1CCCN1C(=O)[C@H](CCCNC(=N)N)NC(=O)[C@@H](N)CCCNC(=N)N)C(C)(C)C)C(=O)O) [compound 15]”, for which the inhibitory constant (Ki) in data set [1] is 132 ± 47 nM; in data set [12], 6680 ± 3700 nM.

`Cc1cc(O)cc(C)c1C[C@H](N)C(=O)N[C@H](CCCNC(=N)N)C(=O)N[C@H]1Cc2ccccc2CN(CCC(=O)N[C@@H](CCCNC(=N)N)C(=O)N[C@@H](CCCNC(=N)N)C(=O)N2CCC[C@H]2C(=O)N[C@@H](Cc2ccc(O)cc2)C(=O)N[C@H](C(=O)N[C@@H](CC(C)C)C(=O)O)C(C)(C)C)C1=O` [peptide 3, H-Dmt-D-Arg-Aba-β-Ala-Arg-Arg-Pro-Tyr-Tle-Leu-OH] (H-[Dmt][dR][X1]RRPY[Tle]L-OH): the “functional profile at the MOR” value in data set [2] was “very potent agonists”.

In the case of `CC(C)C[C@H](NC(=O)[C@@H](NC(=O)[C@@H]1Cc2cc(O)ccc2CN1C(=O)[C@@H]1CCCN1C(=O)[C@H](CCCCN)NC(=O)C[C@@H](N)CCCCN)C(C)(C)C)C(=O)O` [peptide 2] (H-[β3hK]KP[X2][Tle]L-OH), the “plasma stability t1/2” value in data set [18] is over 24 h.

Turning to `COc1cccc(OC)c1-c1cc(C(=O)NC2(C(=O)O)C3CC4CC(C3)CC2C4)nn1-c1ccc(C(=O)N(C)CCCN(C)C)cc1C(C)C` (stereo not shown) [SR142948a], in data set [15], the “activity at NTS2 in the FLIPR assay” value was “full agonist activity”.

Take “H-Arg-Arg-Pro-m-Tyr-Tle-Leu-OH [compound 16]”: in data set [1], the Ki is 24 ± 18 nM and the “selectivity NTS2/NTS1” value is listed as 4. Also, in data set [12], the Ki is 93 ± 22 nM.

In the case of “H-β^3hArg-Arg-Pro-Dmt-Tle-Leu-OH [peptide 13]”, in [1], the Ki was 0.11 ± 0.07 nM and the “selectivity NTS2/NTS1” value is 20.1. Also, the Ki in data set [12] was 2.3 ± 0.2 nM.
